Test results taken from patent US6890706B2, “Process for removing stain in a photographic material” (Ciba Specialty Chemicals Corporation, priority 1999, dated 2005).

Test: Solubility in 0.2M K2CO3 solution (pH of a developer solution)
Format: physicochemical
Conditions: room temperature

With `O=C([O-])CC(Nc1nc(Nc2ccccc2)nc(Nc2ccc(/C=C/c3ccc(Nc4nc(Nc5ccccc5)nc(NC(CC(=O)[O-])C(=O)[O-])n4)cc3S(=O)(=O)[O-])c(S(=O)(=O)[O-])c2)n1)C(=O)[O-].[Na+].[Na+].[Na+].[Na+].[Na+].[Na+]` (stereo not shown) [B] the “Solubility of the active substance in K2CO3 0.2M solution” value (“Solubility of the active substance” for short) was 25.6%.

In the case of `O=C([O-])CC(Nc1nc(Nc2ccc(/C=C/c3ccc(Nc4nc(Nc5cc(S(=O)(=O)[O-])ccc5S(=O)(=O)[O-])nc(NC(CC(=O)[O-])C(=O)[O-])n4)cc3S(=O)(=O)[O-])c(S(=O)(=O)[O-])c2)nc(Nc2cc(S(=O)(=O)[O-])ccc2S(=O)(=O)[O-])n1)C(=O)[O-].[Na+].[Na+].[Na+].[Na+].[Na+].[Na+].[Na+].[Na+].[Na+].[Na+]` (stereo not shown) [C], the “Solubility of the active substance” value is reported as 39.0%.

With `COc1nc(NCCS(=O)(=O)[O-])nc(Nc2ccc(/C=C/c3ccc(Nc4nc(OC)nc(N(CCO)CCO)n4)cc3S(=O)(=O)[O-])c(S(=O)(=O)[O-])c2)n1.[Na+].[Na+].[Na+]` [Comp-1, reference compound] the “Solubility of the active substance” value was 3.4%.

With `O=S(=O)([O-])c1ccc(Nc2nc(Nc3ccc(/C=C/c4ccc(Nc5nc(Nc6ccc(S(=O)(=O)[O-])cc6S(=O)(=O)[O-])nc(N6CCOCC6)n5)cc4S(=O)(=O)[O-])c(S(=O)(=O)[O-])c3)nc(N3CCOCC3)n2)c(S(=O)(=O)[O-])c1.[Na+].[Na+].[Na+].[Na+].[Na+].[Na+]` [Comp-3, reference compound] the “Solubility of the active substance” value was 6.6%.

In the case of `O=C([O-])CN(CC(=O)[O-])c1nc(Nc2ccccc2)nc(Nc2ccc(/C=C/c3ccc(Nc4nc(Nc5ccccc5)nc(N(CC(=O)[O-])CC(=O)[O-])n4)cc3S(=O)(=O)[O-])c(S(=O)(=O)[O-])c2)n1.[Na+].[Na+].[Na+].[Na+].[Na+].[Na+]` [E], the “Solubility of the active substance” value is reported as 38.5%.

In the case of `O=C(O)CN(CC(=O)O)c1nc(Nc2ccc(/C=C/c3ccc(Nc4nc(Nc5cc(S(=O)(=O)O)ccc5S(=O)(=O)O)nc(N(CC(=O)O)CC(=O)O)n4)cc3S(=O)(=O)O)c(S(=O)(=O)O)c2)nc(Nc2cc(S(=O)(=O)O)ccc2S(=O)(=O)O)n1.[Na+].[Na+].[Na+].[Na+].[Na+].[Na+].[Na+].[Na+].[Na+].[Na+]` [G], the “Solubility of the active substance” value is reported as 32.0%.

With `CN(CC(=O)[O-])c1nc(Nc2ccc(/C=C/c3ccc(Nc4nc(Nc5cc(S(=O)(=O)[O-])ccc5S(=O)(=O)[O-])nc(N(C)CC(=O)[O-])n4)cc3S(=O)(=O)[O-])c(S(=O)(=O)[O-])c2)nc(Nc2cc(S(=O)(=O)[O-])ccc2S(=O)(=O)[O-])n1.[Na+].[Na+].[Na+].[Na+].[Na+].[Na+].[Na+].[Na+]` [H] the “Solubility of the active substance” value was 32.0%.
